Results from publication PMC12530851, “Design, synthesis, and apoptotic antiproliferative activity of novel dihydropyrimidine-5-carbonitrile/1,2,4-oxadiazole hybrids as dual EGFR/VEGFR-2 inhibitors endowed with antioxidant activity” (RSC Advances, 2025).

Assays:
[1] = test system: four human cancer cell lines (A-549, MCF-7, Panc-1, HT-29); assay: Antiproliferative assay, average over four cancer cell lines; type: cell-based; conditions: for GI50: Homo sapiens, average IC50 across A-549, MCF-7, Panc-1, HT-29
Method: The given findings were obtained from at least two distinct studies, each comprising three repeats per concentration. Appendix A (SI File) provides experimental details.[38,39] […]
4.2.2. Assay for antiproliferative effect
To explore the antiproliferative potential of compounds propidium iodide fluorescence assay was performed using different cell lines such as Panc-1 (pancreas cancer cell line), MCF-7 (breast […]
respectively. To calculate the total nuclear DNA, a fluorescent dye (propidium iodide, PI) is used which can attach to the DNA, thus offering a quick and precise technique. PI cannot pass through the cell membrane and its signal intensity can be considered as directly proportional to quantity of cellular DNA. Cells whose cell membranes are damaged or have changed permeability are counted as dead ones. The assay was performed by seeding the cells of different cell lines at a density of 3000-7500 cells/well (in 200μl medium) in culture plates followed by incubation for 24h at 37 °C […]
The medium was removed; the compounds were added to the plates at 10 μM concentrations (in 0.1% DMSO) in triplicates, followed by incubation for 48h. DMSO (0.1%) was used as control. After incubation, medium was removed followed by the addition of PI (25 μl, 50μg/mL in water/medium) to each well of the plates. At - 80 °C, the plates were allowed to freeze for 24 h, followed by thawing at 25 °C. A fluorometer (Polar-Star BMG Tech) was used to record the readings at excitation and emission wavelengths of 530 and 620 nm for each well. The percentage cytotoxicity of compounds was calculated using […]
Where ATC= Absorbance of treated cells and AC= Absorbance of control. […]
positive control in the assay. […]

[2] = test system: Bax; assay: Bax activation assay in MCF-7 cells; type: cell-based, human; conditions: for Bax Fold change: vs untreated control
Method: Compounds10k and 10l were tested as caspases-3, 8, 9, Bax and p53 activators and as down-regulators of the anti-apoptotic protein Bcl2 against the MCF-7 breast cancer cell line.[41] Appendix A gives more details.
The Bcl-2 protein family, which includes pro-apoptotic proteins (Bax) and anti-apoptotic proteins (Bcl-2), primarily regulates apoptosis.[46] […] Consequently, we assessed the expression levels of Bcl-2 and Bax proteins in MCF-7 breast cancer cells treated with compounds 10k and 10l, Table 6. […]
Cells were obtained from American Type Culture Collection, cells were grown in RPMI 1640 containing 10% fetal bovine serum at 37°C, stimulated with the compounds to be tested for caspase 8/9, and lysed with Cell Extraction Buffer. This lysate was diluted in Standard Diluent Buffer over the range of the assay and measured for human active caspase-8/9 content. (Cells are Plated in a density of 1.2 – 1.8 × 10,000 cells/well in a volume of 100µl complete growth medium + 100 ul of the tested compound per well in a 96-well plate for 24 hours before the enzyme assay). […]
4.2.7. Bax activation assay
Bring all reagents, except the human Bax-α Standard, to room temperature for at least 30 minutes prior to opening. The human Bax-α Standard solution should not be left at room temperature for more than 10 minutes. All standards, controls and samples should be run in duplicate. Refer to the Assay Layout Sheet to determine the number of wells to be used and put any remaining wells with the desiccant back into the pouch and seal the ziploc. Store unused wells at 4 °C. Pipet 100 μL of Assay Buffer into the S0 (0 pg/mL standard) wells. Pipet 100 μL of Standards #1 through #6 into the appropriate wells. Pipet 100 μL of the Samples into the appropriate wells. Tap the plate gently to mix the contents. Seal the plate and incubate at room temperature on a plate shaker for 1 hour at ~500 rpm. Empty the contents of the wells and wash by adding 400 μL of wash solution to every well. Repeat the wash 4 more times for a total of 5 washes. After the final wash, empty or aspirate the wells and firmly tap the plate on a lint free paper towel to remove any remaining wash buffer.
Pipet 100 μL of yellow Antibody into each well, except the Blank. Seal the plate and incubate at room temperature on a plate shaker for 1 hour at ~500 rpm. Empty the contents of the wells and wash by adding 400 μL of wash solution to every well. Repeat the wash 4 more times for a total of 5 washes. […]
Pipet 100 μL of Substrate Solution into each well. […] Blank the plate reader against the Blank wells, read the optical density at 450 nm. […]
The concentration of Bax in the unknowns can be determined by interpolation. […]

Structure (SMILES)	Potency relative to erlotinib, the other three cell lines ([1]; A-549, Panc-1, HT-29, greater potency than erlotinib)	GI50 [1]	Bax [2]	Bax Fold change [2]
COc1ccc(-c2nc(SCc3nc(-c4ccc(Cl)cc4)no3)[nH]c(=O)c2C#N)cc1 [Compound 10k, 2-(((3-(4-Chlorophenyl)-1,2,4-oxadiazol-5-yl)methyl)thio)-4-(4-methoxyphenyl)-6-oxo-1,6-dihydropyrimidine-5-carbonitrile]	1.3 fold	22 nM	545 ± 3 pg/mL	9 fold
COc1ccc(-c2noc(CSc3nc(-c4ccc(OC)cc4)c(C#N)c(=O)[nH]3)n2)cc1 [Compound 10l, 2-(((3-(4-Methoxyphenyl)-1,2,4-oxadiazol-5-yl)methyl)thio)-4-(4-methoxyphenyl)-6-oxo-1,6-dihydropyrimidine-5-carbonitrile]	–	26 nM	505 ± 3 pg/mL	8 fold
